A value given as a limit tells only on which side of the number the result lay.

As usually defined, the GI50 is the concentration at which growth is held to half of that of the control. Lower therefore signals more potent growth inhibition. By TGI is commonly meant the concentration giving total growth inhibition. Lower therefore signals greater sensitivity of the cells.

Format in all cases: functional
The subject of assay [1] is K562. The assay can be described thus: Cytotoxicity against Homo sapiens (human) K562 cells after 48 hr by SRB assay. Conditions: K562, 48 h. In general terms: The SRB assay estimates cell density from bound dye.
In assay [2] the test system is DU-145. The assay is described as follows: Cytotoxicity against Homo sapiens (human) DU145 cells after 48 hr by SRB assay. Particulars: DU-145, 48 h.
In assay [3] the test system is SK-MEL-28. The assay can be described thus: Cytotoxicity against Homo sapiens (human) SK-MEL-28 cells after 48 hr by SRB assay. Particulars: SK-MEL-28, 48 h.
Assay [4] concerns LOX IMVI. The assay can be described thus: Cytotoxicity against Homo sapiens (human) LOXIMVI cells after 48 hr by SRB assay.
Assay [5] deals with PC-3. The assay can be described thus: Cytotoxicity against Homo sapiens (human) PC3 cells after 48 hr by SRB assay. Particulars: PC-3, 48 h.
The test system of assay [6] is MOLT-4. The assay is described as follows: Cytotoxicity against Homo sapiens (human) MOLT4 cells after 48 hr by SRB assay. Particulars: MOLT-4, 48 h.
In assay [7] the test system is SK-MEL-5. The assay can be described thus: Cytotoxicity against Homo sapiens (human) SK-MEL-5 cells after 48 hr by SRB assay. Conditions: SK-MEL-5, 48 h.
Assay [8] relates to MDA-MB-435. The assay is described as follows: Cytotoxicity against Homo sapiens (human) MDA-MB-435 cells after 48 hr by SRB assay. Conditions: MDA-MB-435, 48 h.
Assay [9] has as its system CCRF-CEM. The assay can be described thus: Cytotoxicity against Homo sapiens (human) CCRF-CEM cells after 48 hr by SRB assay.
In assay [10] the test system is SNB-19. The assay is described as follows: Cytotoxicity against Homo sapiens (human) SNB19 cells after 48 hr by SRB assay. Particulars: SNB-19, 48 h.
Assay [11] has as its system HOP-92. The assay is described as follows: Cytotoxicity against Homo sapiens (human) HOP92 cells after 48 hr by SRB assay. Conditions: HOP-92, 48 h.
Assay [12] in a line: Cytotoxicity against Homo sapiens (human) CNS cancer cells after 48 hr by SRB assay. Particulars: Cancer cell lines.
For assay [13], the system named is ACHN. The assay is described as follows: Cytotoxicity against Homo sapiens (human) ACHN cells after 48 hr by SRB assay.
Assay [14] concerns NCI-H226. The assay can be described thus: Cytotoxicity against Homo sapiens (human) NCI-H226 cells after 48 hr by SRB assay. Conditions: NCI-H226, 48 h.
Assay [15] relates to TK-10. The assay can be described thus: Cytotoxicity against Homo sapiens (human) TK10 cells after 48 hr by SRB assay. Particulars: TK-10, 48 h.
In assay [16] the test system is OVCAR-8. The assay can be described thus: Cytotoxicity against Homo sapiens (human) OVCAR8 cells after 48 hr by SRB assay. Particulars: OVCAR-8, 48 h.
Assay [17] in a line: Cytotoxicity against Homo sapiens (human) colon cancer cells after 48 hr by SRB assay. Particulars: Cancer cell lines.
Assay [18] deals with SF-268. The assay is described as follows: Cytotoxicity against Homo sapiens (human) SF268 cells after 48 hr by SRB assay. Particulars: SF-268, 48 h.
In assay [19] the test system is COLO 205. The assay is described as follows: Cytotoxicity against Homo sapiens (human) COLO205 cells after 48 hr by SRB assay. Particulars: COLO 205, 48 h.
Assay [20] concerns HCT-116. The assay is described as follows: Cytotoxicity against Homo sapiens (human) HCT116 cells after 48 hr by SRB assay. Particulars: HCT-116, 48 h.

Regarding `NS(=O)(=O)c1ccc(-n2nc3c(c2-c2cccs2)Cc2ccccc2-3)cc1`, the GI50 in [1] was determined as 0.86 µM; in assay [2], 24.1 µM; in assay [3], 25.8 µM; in [4] it was 6.58 µM; in assay [5], 20.6 µM; in [6] it was 1.43 µM. Moreover, the GI50 in assay [7] worked out at 10.5 µM; in assay [8], 11.8 µM; in assay [9] it was 4.24 µM; in assay [10] it was 18.1 µM; in assay [11], 5.56 µM; in [12], 31.8 µM. The GI50 is 11.7 µM in [13]; 4.9 µM in assay [14]; 12.2 µM in assay [15]; 20.5 µM in [16]; 14.9 µM in [17]; over 100 µM in assay [18]. The GI50 in [19] was found to be 25.3 µM; in [20], 7.67 µM. Also, the TGI came to 42 µM in [12] and 37.2 µM in [17].

Consider `O=C(Nc1ccccc1)NS(=O)(=O)c1ccc(N2N=C3c4ccccc4CC3C2c2cccnc2)cc1` (stereo not drawn), for which the GI50 worked out at 26.6 µM in assay [1]; 36.6 µM in assay [2]; 71.5 µM in assay [3]; 15.4 µM in [4]; 36.2 µM in assay [5]; 11.6 µM in [6]. Also, the GI50 in [7] came to 23.6 µM; in assay [8] it was 21.4 µM; in [9], 40.9 µM; in [10], 83.9 µM; in assay [11], 74.9 µM; in assay [12], 54.8 µM. Moreover, the GI50 in assay [13] worked out at 23.6 µM; in [14] it was 23.7 µM; in assay [15] it was 11.7 µM; in assay [16], 27 µM; in assay [17], 26.2 µM; in assay [18] it was 62.1 µM. For the same molecule, the results for the GI50 in assay [19] and in assay [20] were 31.1 µM and 15.3 µM, respectively. In addition, the figures for the TGI in [12] and in assay [17] were 87.6 µM and 78.7 µM, respectively.

Turning to `O=C(NC1CCCCC1)NS(=O)(=O)c1ccc(-n2nc3c(c2-c2cccs2)Cc2ccccc2-3)cc1`, the GI50 in assay [1] came out at 10 µM; in assay [2], 31.9 µM; in assay [3], 34.2 µM; in assay [4], 5.66 µM; in [5], 14.5 µM; in assay [6], 49.9 µM. The GI50 is 18.7 µM in [7]; 32.5 µM in [8]; 1.15 µM in assay [9]; 56.8 µM in assay [10]; 14.3 µM in assay [11]; 49.5 µM in [12]. Further, the GI50 is 17.3 µM in [13]; 21.3 µM in assay [14]; 17.5 µM in assay [15]; 25.3 µM in [16]; 24.2 µM in [17]; over 100 µM in assay [18]. For the same molecule, the concentration for 50% growth inhibition (GI50) in assay [19] was 23.3 µM; in [20], 31.6 µM. Also, the TGI in [12] worked out at 93.6 µM; in [17], 73.3 µM.

On to `O=C(Nc1ccccc1)NS(=O)(=O)c1ccc(-n2nc3c(c2-c2cccs2)Cc2ccccc2-3)cc1`, for which the GI50 is 14 µM in assay [1]; 28.6 µM in [2]; 50.2 µM in assay [3]; 12 µM in assay [4]; 10.4 µM in [5]; 15.5 µM in [6]. Further, the GI50 was 15.6 µM in assay [7]; 22.1 µM in [8]; 13.6 µM in assay [9]; over 100 µM in assay [10]; 12.3 µM in [11]; 44.4 µM in [12]. The GI50 was 17.6 µM in [13]; 19.2 µM in assay [14]; 4.99 µM in [15]; 28.3 µM in assay [16]; 20.4 µM in assay [17]; 26 µM in [18]. The GI50 in assay [19] came to 44 µM; in assay [20], 9.13 µM. Also, the TGI in assay [12] was 80.7 µM; in assay [17], 37.2 µM.
